Patent US4489091A, “Antilipemic and anti-inflammatory compositions containing sulfonate derivatives” (Taiho Pharmaceutical Company Limited, priority 1980, dated 1984)
Like-named read-outs stand apart in the source and are kept apart here.

Experiments:
Acute toxicity = details: rat, in vivo
Text: Six-week-old male Wistar rats weighing 180 to 200 g are used, 5 rats in each group. Each compound of the invention is suspended in a 30% aqueous solution of polyethylene glycol 6000 and orally given to the rat at the dosage shown in Table 2. The animals are checked for poisoning, body weight and survival to determine the LD50 value.

triglycerides = assay: Antilipemic effect: percent triglycerides inhibition in plasma of rats given an olive oil-cholesterol mixture; format: in vivo, male Wistar rats; details: for inhibition in vivo at 200 mg/kg: read-out: Anti-lipemic effect, TG (percent triglycerides inhibition), asterisked; for inhibition in vivo at 100 mg/kg: read-out: Anti-lipemic effect, TG (percent triglycerides inhibition)
Description: (§1) The above compounds of this invention are tested by the following methods for antilipemic effect and acute toxicity. In the column of antilipemic effect in the table, the asterisked values indicate the effect achieved by orally giving 200 mg/kg of the compounds concerned, and the unmarked values, the effect attained by orally giving 100 mg/kg. In the same column, "TG" stands for percent triglycerides inhibition and "CS" percent cholesterol inhibition.
(§2) Seven-week-old male Wistar rats weighing 200 to 220 g are used, 5 rats in each group.
(§3) Each compound of the invention (100 mg or 200 mg) is dissolved in 10 ml of an olive oil-cholesterol mixture (containing 15% of cholesterol). The mixture containing the compound is orally given to the rat with a probe at a dose of 10 ml/kg. Two or 8 hours thereafter, 6 ml of whole blood is withdrawn from the descending aorta of the rat under ether anesthesia with a syringe containing heparin. The blood is centrifuged at 5° C. and 3000 r.p.m. to obtain the plasma. The plasma collected after the lapse of 2 hours is used for determining the triglycerides content, and the plasma obtained 8 hours later for determining the total cholesterol content, using a triglycerides measuring kit (trade mark "Triglycerides-B Test Wako," product of Wako Junyaku Co., Ltd., Japan) and a total cholesterol measuring kit (trade mark "Cholesterol Test Wako," product of the same), respectively. The olive oil-cholesterol mixture containing no compound is similarly given to a control group, while no treatment is conducted for a normal group. The triglycerides and total cholesterol contents in the plasma are also determined for these groups in the same manner as is the case with the test groups.
(§4) The present hyperlipidemia inhibition achieved by the present compound is given by [formula] in which A is the triglycerides (cholesterol) content of the control group, B is the triglycerides (cholesterol) content of the normal group, and C is the triglycerides (cholesterol) content of the group to which the present compound is given.

cholesterol = assay: Antilipemic effect: percent total cholesterol inhibition in plasma of rats given an olive oil-cholesterol mixture; format: in vivo, male Wistar rats; details: read-out: Anti-lipemic effect, CS (percent cholesterol inhibition)
Description: as §1, §2, §3, §4

[1] = oral 200 mg/kg (asterisked values), plasma 2 hours after dosing, Wistar rat
[2] = oral 100 mg/kg, plasma 2 hours after dosing, Wistar rat
[3] = oral 100 mg/kg, plasma 8 hours after dosing, Wistar rat
[4] = oral, six-week-old male Wistar rats, suspended in 30% aqueous polyethylene glycol 6000, read-out: LD50

SMILES	LD50 (Acute toxicity; po)	inhibition in vivo at 200 mg/kg (triglycerides; [1])	inhibition in vivo at 100 mg/kg (triglycerides; [2])	also measured
CCCCCCCCCC(=O)COS(=O)(=O)c1ccc(C)cc1 [Compound 22]	> 3000 mg/kg	62%	–	–
CCCC(=O)COS(=O)(=O)c1ccc(C)cc1C [Compound 112]	> 2000 mg/kg	–	80%	inhibition in vivo at 100 mg/kg (cholesterol; [3]): 62%
Cc1cc(C)c(S(=O)(=O)OCC(=O)CCC(C)C)c(C)c1 [Compound 83]	> 3000 mg/kg	–	68%	inhibition in vivo at 100 mg/kg (cholesterol; [3]): 71%
CCCC(=O)COS(=O)(=O)c1ccc(OC)cc1 [Compound 34]	> 1500 mg/kg	–	72%	inhibition in vivo at 100 mg/kg (cholesterol; [3]): 68%
CCCCCCC(=O)COS(=O)(=O)c1ccc(Cl)cc1 [Compound 67]	> 2000 mg/kg	–	80%	–
CCC(=O)COS(=O)(=O)c1c(C)cc(C)cc1C [Compound 72]	> 3000 mg/kg	–	91%	inhibition in vivo at 100 mg/kg (cholesterol; [3]): 90%
CCCC(=O)COS(=O)(=O)c1ccc(OCC)cc1 [Compound 43]	–	–	–	LD50 (Acute toxicity; [4]): > 2000 mg/kg; inhibition in vivo at 100 mg/kg (triglycerides; Rattus norvegicus, po, 2 h): 97%; inhibition in vivo at 100 mg/kg (cholesterol; Rattus norvegicus, po, 8 h): 120%
CCC(CC)CCC(=O)COS(=O)(=O)c1c(C)cc(C)cc1C [Compound 160]	> 4000 mg/kg	–	42%	inhibition in vivo at 100 mg/kg (cholesterol; [3]): 40%
CCCCC(=O)COS(=O)(=O)c1ccc(OC)cc1 [Compound 35, 2-oxahexyl-p-methoxybenzene sulfonate]	–	–	87%	LD50 (Acute toxicity; [4]): > 2000 mg/kg; inhibition in vivo at 100 mg/kg (cholesterol; [3]): 72%
Cc1cc(C)c(S(=O)(=O)OCC(=O)CC(C)(C)C)c(C)c1 [Compound 82]	> 3000 mg/kg	–	56%	inhibition in vivo at 100 mg/kg (cholesterol; [3]): 66%
CCCCC=CCC(=O)COS(=O)(=O)c1c(C)cc(C)cc1C [Compound 87]	–	57%	–	–
CCCCCCCCCC(=O)COS(=O)(=O)c1c(C)cc(C)cc1C [Compound 79]	> 4000 mg/kg	61%	–	–
CCCC(C)CC(=O)COS(=O)(=O)c1ccc(OCC)cc1 (stereo not drawn) [Compound 142]	> 4000 mg/kg	–	47%	–
CCC(C)C(=O)COS(=O)(=O)c1ccc(O)cc1 (stereo not drawn) [Compound 63]	> 2000 mg/kg	–	76%	–
CCCC(=O)COS(=O)(=O)C1CCCCC1 [Compound 3]	–	51%	–	–
CCCC(=O)COS(=O)(=O)c1ccc(O)c(OC)c1 [Compound 110]	–	–	70%	–
Cc1cc(C)c(C)c(S(=O)(=O)OCC(=O)CCCCCCC(C)C)c1C [Compound 94]	> 3000 mg/kg	51%	–	–
CCCC(=O)COS(=O)(=O)c1ccc(NC(C)=O)cc1 [Compound 103]	> 3000 mg/kg	51%	–	–
CCCC(=O)COS(=O)(=O)c1c(C)c(C)c(C)c(C)c1C [Compound 118]	> 3000 mg/kg	76%	–	–
CCCC(=O)COS(=O)(=O)c1ccc(C)c(Cl)c1 [Compound 108]	> 1500 mg/kg	–	64%	–

SMILES	LD50 (Acute toxicity; po)	inhibition in vivo at 200 mg/kg (triglycerides; [1])	inhibition in vivo at 100 mg/kg (triglycerides; [2])	also measured
CCCCCCCCCCCCCCC(=O)COS(=O)(=O)c1ccc(C)cc1 [Compound 25]	> 3000 mg/kg	62%	–	–
CC(=O)COS(=O)(=O)c1c(C)cc(C)cc1C [Compound 71]	–	–	60%	inhibition in vivo at 100 mg/kg (cholesterol; [3]): 82%
CCCC(=O)COS(=O)(=O)c1c(C(C)C)cc(C(C)C)cc1C(C)C [Compound 115]	> 3000 mg/kg	67%	–	–
CCOc1ccc(S(=O)(=O)OCC(=O)CCC(CC)CC)cc1 [Compound 144]	–	–	–	LD50 (Acute toxicity; [4]): > 4000 mg/kg; inhibition in vivo at 200 mg/kg (triglycerides; Rattus norvegicus, po, 2 h): 55%
CCCC(=O)COS(=O)(=O)c1cc(Br)ccc1OC [Compound 119]	> 2000 mg/kg	–	67%	–
CCCC(=O)COS(=O)(=O)c1ccccc1C1OCCO1 [Compound 105]	> 3000 mg/kg	55%	–	–
Cc1ccccc1S(=O)(=O)OCC(=O)CCCCCCC(C)C [Compound 33]	> 3000 mg/kg	67%	–	–
CCCC(=O)COS(=O)(=O)c1c(C)c(C)cc(C)c1C [Compound 89]	> 3000 mg/kg	56%	–	–
CCCCCCCCCCCC(=O)COS(=O)(=O)c1c(C)cc(C)cc1C [Compound 81]	> 4000 mg/kg	60%	–	–
CCCC(=O)COS(=O)(=O)c1cc(Cl)ccc1Cl [Compound 107]	> 1500 mg/kg	–	75%	–
Cc1cc(C)c(S(=O)(=O)OCC(=O)CCCCCCC(C)C)c(C)c1 [Compound 85]	> 4000 mg/kg	–	48%	–
CCCCCCCCCC(=O)COS(=O)(=O)c1ccc(Cl)cc1 [Compound 68, 2-oxo-undecyl-p-chlorobenzene sulfonate]	–	–	62%	LD50 (Acute toxicity; [4]): > 3000 mg/kg
CCCCC(CC)C(=O)COS(=O)(=O)c1c(C)cc(C)cc1C (stereo not drawn) [Compound 84]	> 4000 mg/kg	–	59%	–
CCCCCCCCCCCC(=O)COS(=O)(=O)c1ccc(OC)cc1 [Compound 39]	> 4000 mg/kg	58%	–	–
CCCCCCCCCCC(=O)COS(=O)(=O)c1ccc(Cl)cc1 [Compound 69]	> 3000 mg/kg	77%	–	–
CCCCCCCCC(=O)COS(=O)(=O)c1ccc(O)cc1 [Compound 61]	> 3000 mg/kg	–	67%	–
CCCC(=O)COS(=O)(=O)c1cccc(C(=O)O)c1 [Compound 102]	> 3000 mg/kg	42%	–	–
CCCCC(=O)COS(=O)(=O)c1ccccc1 [Compound 7]	–	–	98%	inhibition in vivo at 100 mg/kg (cholesterol; [3]): 67%
CCCC(=O)COS(=O)(=O)c1ccc(Cl)cc1O [Compound 109]	> 2000 mg/kg	82%	–	–
CCCC(=O)COS(=O)(=O)c1ccc(O)cc1 [Compound 59]	> 3000 mg/kg	–	70%	–

SMILES	LD50 (Acute toxicity; po)	inhibition in vivo at 200 mg/kg (triglycerides; [1])	inhibition in vivo at 100 mg/kg (triglycerides; [2])	also measured
CC=CC(=O)COS(=O)(=O)c1ccccc1 [Compound 13]	–	–	72%	–
CCCC(=O)COS(=O)(=O)Cc1ccccc1 [Compound 4]	–	–	68%	inhibition in vivo at 100 mg/kg (cholesterol; [3]): 52%
CCCCCCCCCCCCc1ccc(S(=O)(=O)OCC(=O)CCC)cc1 [Compound 104]	> 3000 mg/kg	56%	–	–
CCCC(=O)COS(=O)(=O)CCCOCC [Compound 2]	–	65%	–	–
CCCC(=O)COS(=O)(=O)c1ccc([N+](=O)[O-])cc1 [Compound 106]	–	60%	–	–
CCCCCCCCCCC(=O)COS(=O)(=O)c1ccc(C)cc1 [Compound 23]	> 3000 mg/kg	64%	–	–
CCCCOc1ccc(S(=O)(=O)OCC(=O)CCCC)cc1 [Compound 54]	> 2000 mg/kg	–	48%	–
CCCCCC(=O)COS(=O)(=O)c1ccc(O)cc1 [Compound 60]	> 3000 mg/kg	–	83%	–
CCCCCCCCCCCCC(=O)COS(=O)(=O)c1ccc(C)cc1 [Compound 24]	> 3000 mg/kg	63%	–	–
CCCCCCCCCC(=O)COS(=O)(=O)c1ccc(OCCCC)cc1 [Compound 57]	> 4000 mg/kg	52%	–	–
CCOc1ccc(S(=O)(=O)OCC(=O)CCC2CCCCC2)cc1 [Compound 174]	–	–	–	TG (percent triglycerides inhibition), Table 3 (triglycerides; Table 3, dose not given): 100%
CCCC(=O)COS(=O)(=O)c1cc(Cl)c(Cl)cc1Cl [Compound 113]	> 1500 mg/kg	–	60%	–
CCCCCCCCCCC(=O)COS(=O)(=O)c1c(C)c(C)cc(C)c1C [Compound 92]	–	43%	–	LD50 (Acute toxicity; [4]): > 3000 mg/kg
C=CCCCCCCCCC(=O)COS(=O)(=O)c1c(C)cc(C)cc1C [Compound 88]	> 4000 mg/kg	66%	–	–
C=CCCCCCCCCC(=O)COS(=O)(=O)c1ccc(OC)cc1 [Compound 42]	> 4000 mg/kg	57%	–	–
CCCCOc1ccc(S(=O)(=O)OCC(=O)CCC(C)C)cc1 [Compound 58]	> 4000 mg/kg	61%	–	–
C=CCCC(=O)COS(=O)(=O)c1c(C)c(C)cc(C)c1C [Compound 93]	> 3000 mg/kg	60%	–	–
CCCCCCCC(=O)COS(=O)(=O)c1c(C)c(C)cc(C)c1C [Compound 91]	> 3000 mg/kg	47%	–	–
